# Source: patent publication US10428028B2, “HDAC inhibitors” (BIOMARIN PHARMACEUTICAL INC., priority 2013, dated 2019)
# Tested on: not listed separately
# Test: Brain penetration studies
# Format: in vivo
# Details: C57/BL6/J, mouse; mice, s.c. 5 or 50 mg/kg or i.v. 5 mg/kg; Cmax(brain)/Cmax(plasma); read-out: BPR (brain/plasma ratio)
# Protocol: Test compounds were prepared at either 0.5 mg/ml or 5 mg/ml in 30% hydroxypropyl-β-cyclodextrin, 100 mM sodium acetate pH 5.5, 5% DMSO. C57/BL6/J mice were dosed s.c. at 5 mg/kg or 50 mg/kg, or i.v. at 5 mg/kg. Animals were euthanized at pre-dose, 5, 15, 30 min, 1, 2 and 4 hours post-dose and plasma and brain obtained. Three animals per dose per time points were used. The levels of compound in the plasma and brain were determined by standard LC/MS/MS methods. Brain/plasma ratio (BPR) was calculated as the ratio of the Cmax(brain)/Cmax(plasma). The results are shown in Table 5, where IA corresponds to a BPR less than 0.1, D is between 0.1 and 0.2, C is 0.2 to 0.5, B comprises 0.5 to 1 and A is greater than 1.
row,Structure (SMILES),Kp
1,Nc1ccccc1NC(=O)c1ccc2c(cnn2Cc2cccnc2)c1 [Compound A1],0.2 to 0.5
2,Nc1cc(F)ccc1NC(=O)c1ccc2c(cnn2Cc2cncc(F)c2)c1 [Compound A7],0.2 to 0.5
3,Nc1ccccc1NC(=O)c1ccc2c(cnn2Cc2ccc(F)c(F)c2)c1 [Compound A9],> 1
4,Cc1ccc(Cn2cc3cc(C(=O)Nc4ccccc4N)ccc3n2)c(C)n1 [Compound A15],< 0.1
5,Cn1cc(Cn2ncc3cc(C(=O)Nc4ccccc4N)ccc32)cn1 [Compound A3],0.2 to 0.5
6,"Nc1ccccc1NC(=O)c1ccc2c(cnn2Cc2cncc(F)c2)c1 [Compound A4, N-(2-aminophenyl)-1-((5-fluoropyridin-3-yl)methyl)-1H-indazole-5-carboxamide]",0.2 to 0.5
7,"Nc1ccccc1NC(=O)c1ccc2nn(Cc3cncc(F)c3)cc2c1 [Compound A14, N-(2-aminophenyl)-2-((5-fluoropyridin-3-yl)methyl)-2H-indazole-5-carboxamide]",0.2 to 0.5
8,Nc1ccccc1NC(=O)c1ccc2c(cnn2Cc2ccccc2)c1 [Compound A2],> 1
9,Nc1ccccc1NC(=O)c1ccc2nn(Cc3cccnc3)cc2c1 [Compound A13],< 0.1
10,Cc1ccc(Cn2ncc3cc(C(=O)Nc4ccccc4N)ccc32)c(C)n1 [Compound A5],0.2 to 0.5
11,Nc1cc(F)ccc1NC(=O)c1ccc2c(cnn2CC2CC2)c1 [Compound A12],0.5 to 1

# Tested on: Frataxin (FXN) mRNA
# Test: Effect of HDAC inhibitors on frataxin (FXN) mRNA expression
# Format: cell-based, human (Friedreich's ataxia patient primary lymphocytes)
# Details: Friedreich's ataxia patient primary lymphocytes, 48 hours
# Protocol: Blood is collected from Friedreich's ataxia patient donors into tubes containing the anti-coagulant EDTA. Primary lymphocytes are isolated using Lymphocyte Separation Medium (MP Biomedicals, Solon, Ohio) following the manufacturer's instructions and including a few modifications made by Repligen. After a final wash in Phosphate Buffered Saline (PBS), the cells are distributed into a 6-well cell culture plate in cell growth medium. The test HDAC inhibitor compound is added to cells in a dose escalating manner (usually concentrations range from 1 to 10 μM) and 0.1% DMSO is added to one well of cells as a no treatment control. […] The RNA yield and concentration is determined using a Nanodrop spectrophotometer (Thermo Fisher Scientific, Waltham, Mass.) and depending on the RNA concentration, one of two protocols is used to measure frataxin (FXN) transcript levels. […] In both methods each RNA sample is analyzed in triplicate (preferably) or duplicate (minimally) using a one-step qRT-PCR master mix that contains all the components necessary for cDNA synthesis and PCR amplification in a single, continuous reaction. […] The amount of FXN (or GAPDH) in the sample is determined as the relative quantity to the calibrator where the calibrator sample is assigned an arbitrary quantity of 1. […] The relative quantity of FXN is normalized to cell number and RNA input. […]
row,Structure (SMILES),Fxn >2X (concentration required for a 2-fold increase in FXN mRNA)
1,Nc1ccccc1NC(=O)c1ccc2c(cnn2Cc2ccc(F)c(F)c2)c1 [Compound A9],A (A if less than 5 μM)
2,Nc1cc(F)ccc1NC(=O)c1ccc2c(cnn2CC2CC2)c1 [Compound A12],C (C if greater than 10 μM)
